Source: paper PMC4771075 (Journal of medicinal chemistry, 2015)
Where “and” joins values, the source holds several entries; their conditions need not be identical. Equal entries are not always repeated. Where two headings read alike, the source gives them in different places. Square brackets hold non-standard residues; d marks the D form. * marks the point of attachment. Dap = NC[C@H](N)C(=O)O; Bn = c1ccc(C*)cc1

Experiments:
mu opioid receptor (MOR) = mu opioid receptor (MOR) (Rattus norvegicus, UniProt P33535); experiment: Radioligand binding assay, MOR
[1] = target: kappa opioid receptor (KOR) (Rattus norvegicus, UniProt P34975); experiment: biochemical; format: binding
[2] = tested on: stress-induced reinstatement of cocaine seeking behavior; conditions: mice, s.c. administration; cited from earlier work
KOR [3] = target: T1, KOR (Rattus norvegicus, UniProt P34975); conditions: read-out: KOR Ki found previously; cited from earlier work
KOR [4] = target: T1, KOR; experiment: Agonist stimulated [^35S]GTPγS binding assay, agonist efficacy; format: biochemical
KOR [5] = target: T1, KOR; experiment: Schild analysis against Dyn A; format: biochemical
KOR [6] = target: T1, KOR; conditions: after a single dose; cited from earlier work

Sequence of mu opioid receptor (MOR) (P33535 whole entry): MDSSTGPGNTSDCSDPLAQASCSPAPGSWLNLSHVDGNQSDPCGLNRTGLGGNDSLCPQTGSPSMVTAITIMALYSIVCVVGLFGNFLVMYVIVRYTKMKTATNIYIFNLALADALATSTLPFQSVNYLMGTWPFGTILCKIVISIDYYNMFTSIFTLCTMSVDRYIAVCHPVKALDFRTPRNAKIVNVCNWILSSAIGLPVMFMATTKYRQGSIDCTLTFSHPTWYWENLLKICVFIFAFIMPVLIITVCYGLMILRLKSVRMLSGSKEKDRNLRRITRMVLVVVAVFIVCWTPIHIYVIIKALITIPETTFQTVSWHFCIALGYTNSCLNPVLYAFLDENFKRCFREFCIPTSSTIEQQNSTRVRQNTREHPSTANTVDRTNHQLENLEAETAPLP
T1 sequence (P34975 whole entry): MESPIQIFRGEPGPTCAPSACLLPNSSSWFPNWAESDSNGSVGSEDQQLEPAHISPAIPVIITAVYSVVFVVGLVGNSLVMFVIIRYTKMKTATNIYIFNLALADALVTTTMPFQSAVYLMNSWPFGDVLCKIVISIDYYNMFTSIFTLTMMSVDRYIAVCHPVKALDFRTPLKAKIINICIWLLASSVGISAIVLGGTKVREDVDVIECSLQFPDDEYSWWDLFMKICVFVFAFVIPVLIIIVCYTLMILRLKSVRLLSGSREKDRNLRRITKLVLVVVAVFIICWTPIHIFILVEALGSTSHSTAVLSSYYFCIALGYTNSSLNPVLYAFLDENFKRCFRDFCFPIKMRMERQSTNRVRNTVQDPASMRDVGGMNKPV
Sequence of kappa opioid receptor (KOR) (P34975 whole entry): as above

N=C(N)NCCC[C@@H]1NC(=O)[C@H](CCCNC(=N)N)NC(=O)[C@H](NC(=O)[C@H](Cc2ccccc2)NC(=O)CNC(=O)CNC(=O)[C@H](Cc2ccc(O)cc2)NCc2ccccc2)CC(=O)NC[C@@H](C(=O)N[C@@H](CCCNC(=N)N)C(=O)N2CCC[C@H]2C(=O)N[C@@H](CCCCN)C(N)=O)NC1=O [Peptide 1, [N-benzyl-Tyr^1-cyclo(D-Asp^5,Dap^8)]dynorphin A(1-11)NH2]
Ki (mu opioid receptor (MOR)): 4380 ± 560 nM
Ki ([1]; KOR Ki 95% confidence interval, n = 10): 30 to 160 nM
Ki ([1]; KOR Ki (nM ± SEM)): 95.2 ± 28.8 nM
Relative KOR affinity ([1]; compared to zyklophin (1.0)): 1.0
stress-induced reinstatement of cocaine seeking behavior [2]: suppressed

CC[C@H](C)[C@H](NC(=O)[C@H](CCCN=C(N)N)NC(=O)[C@H](CCCN=C(N)N)NC(=O)[C@H](CC(C)C)NC(=O)[C@H](Cc1ccccc1)NC(=O)CNC(=O)CNC(=O)[C@@H](N)Cc1ccc(O)cc1)C(=O)N[C@@H](CCCN=C(N)N)C(=O)N1CCC[C@H]1C(=O)N[C@@H](CCCCN)C(N)=O [Dyn A(1-11)NH2, reference compound]
Ki ([1]; KOR Ki (nM ± SEM)): 2.6 ± 0.3 nM

[N-benzyl-Tyr^1,D-Asn^5,Dap(Ac)^8]Dyn A(1-11)NH2 (Bn-YGGF[dN]RR[Dap](Ac)RPK-NH2; not fully specified (residue 1))
Ki (KOR [3]): 66.9 nM

CC(=O)NC[C@H](NC(=O)[C@H](CCCNC(=N)N)NC(=O)[C@H](CCCNC(=N)N)NC(=O)[C@H](CC(C)C)NC(=O)[C@H](Cc1ccccc1)NC(=O)CNC(=O)CNC(=O)[C@H](Cc1ccc(O)cc1)NCc1ccccc1)C(=O)N[C@@H](CCCNC(=N)N)C(=O)N1CCC[C@H]1C(=O)N[C@@H](CCCCN)C(N)=O [Peptide 3, NBn-Tyr^1-Gly-Gly-Phe-Leu-Arg-Arg-Dap(Ac)^8-Arg-Pro-Lys-NH2]
Ki (mu opioid receptor (MOR)): 157 ± 25 nM
fold higher MOR affinity than zyklophin (mu opioid receptor (MOR)): 28 fold
Ki ratio, Ki (MOR)/Ki (KOR) [1]: 5
Relative KOR affinity [1]: 3.3
fold higher KOR affinity compared to zyklophin [1]: 3 fold
Ki ([1]; KOR Ki (nM ± SEM)): 28 nM and 28.6 nM
EC50 (KOR [4]): 39.5 ± 17.4 nM
KOR efficacy in the GTPγS assay (KOR [4]; screened at 10 µM, compared to the full agonist Dyn A(1-13)NH2): 26%

Oc1ccc2c3c1O[C@H]1c4[nH]c5c(c4C[C@@]4(O)[C@@H](C2)N(CC2CC2)CC[C@]314)C[C@@]1(O)[C@H]2Cc3ccc(O)c4c3[C@@]1(CCN2CC1CC1)[C@H]5O4 [norBNI, nor-binaltorphimine, reference compound]
Kb (KOR [5]): 0.074 nM
duration of KOR antagonist activity (KOR [6]): lasting weeks after a single dose

CC(C)[C@@H](CN1CC[C@@](C)(c2cccc(O)c2)[C@@H](C)C1)NC(=O)[C@H]1Cc2ccc(O)cc2CN1 [JDTic, (3R)-7-hydroxy-N-[(2S)-1-[(3R,4R)-4-(3-hydroxyphenyl)-3,4-dimethylpiperidin-1-yl]-3-methylbutan-2-yl]-1,2,3,4-tetrahydroisoquinoline-3-carboxamide]
duration of KOR antagonist activity (KOR [6]): lasting weeks after a single dose

CC[C@H](C)[C@H](NC(=O)[C@H](CCCNC(=N)N)NC(=O)[C@H](CCCNC(=N)N)NC(=O)[C@@H](CC(N)=O)NC(=O)[C@H](Cc1ccccc1)NC(=O)CNC(=O)CNC(=O)[C@H](Cc1ccc(O)cc1)NCc1ccccc1)C(=O)N[C@@H](CCCNC(=N)N)C(=O)N1CCC[C@H]1C(=O)N[C@@H](CCCCN)C(N)=O [Peptide 2, NBn-Tyr^1-Gly-Gly-Phe-DAsn^5-Arg-Arg-Ile-Arg-Pro-Lys-NH2]
fold lower KOR affinity compared to zyklophin [1]: 4 fold
